# From the OPERA property sets (Mansouri et al. 2018)
# Conditions: not given
SMILES,melting point [°C],ready biodegradability,boiling point [°C],log10 vapour pressure (mmHg),log10 Koc (L/kg),log10 Koa,log10 Henry constant (atm·m³/mol)
COC(=O)C1(S(=O)(=O)c2ccccc2)CCCC1,56.5,,,,,,
Oc1ccccc1Cc1ccccc1O,,not readily biodegradable,,,,,
CC(CCC(=O)O)(c1ccc(O)cc1)c1ccc(O)cc1,172,,,,,,
Brc1c(Br)c(Br)c(Br)c(Br)c1Br,326,not readily biodegradable,,,,,
CCCCCCCCCCCCCCCC(N)=O,107,not readily biodegradable,,,,,
CC(C)CC(Cl)Cl,,,130,,,,
CC(C)NCC(O)COc1ccc(COCCOC(C)C)cc1 (stereo unspecified),100,,,,,,
CCOC(=O)OCC,-43,,126,1.03,,,
C#CC(C)(C)NC(=O)c1ccc(Cl)cc1,,,,,1.9,,
CC/C(=C(/CC)c1ccc(O)cc1)c1ccc(O)cc1,,,,,4.14,,
N#CCCS(=O)(=O)O.[Na+],244,,,,,,
CCOCCOCCO,-76,,196,-0.9,,,
O=C1CCCCN1,39.5,,256,-2.36,,,
CNC(=O)O/N=C(\C)C(C)S(C)(=O)=O (stereo unspecified),87,,,-5.7,,,
c1ccc2cnccc2c1,26.5,,243,-1.16,,,
C/C=C/C(C)CC (stereo unspecified),-126,,87.6,,,,
O=C(O)c1ccccc1F,126,,,,,,
O=c1oc2ccccc2c(O)c1Cc1c(O)c2ccccc2oc1=O,290,,,,,,
Cc1ccnc2ccccc12,9.5,,262,-2.2,,,
CCCCCCCCCCCCCCCC(=O)NCCO,98.5,,,,,,
Clc1cc2c(oc3cc(Cl)c(Cl)c(Cl)c32)c(Cl)c1Cl,,,,,,10.8,
OCC1CCCC1,,,163,,,,
CCOP(=O)(NC(C)C)Oc1ccc(S(C)=O)c(C)c1 (stereo unspecified),,,,,1.57,,
OCC(O)CCl (stereo unspecified),,readily biodegradable,,-0.699,,,
O=[N+]([O-])c1ccc(Oc2ccccc2)c([N+](=O)[O-])c1,71,,,,,,

SMILES,melting point [°C],ready biodegradability,boiling point [°C],log10 vapour pressure (mmHg),log10 Koc (L/kg),log10 Koa,log10 Henry constant (atm·m³/mol)
C=CC#CC,,,59.5,,,,
CCCCCCCCCCCC(C)=O,30.5,,263,-1.98,,,
COP(=S)(OC)Oc1nc(Cl)c(Cl)cc1Cl,43,,,-4.38,3.52,,
CC(=O)c1cccc(C#N)c1,99,,,,,,
Fc1ccc2ccccc2c1,61,,212,,,,
CN(c1c(Br)cc(Br)cc1Br)c1c([N+](=O)[O-])cc([N+](=O)[O-])cc1C(F)(F)F,150,,,-7.01,,,
CC(C)(C)CC(C)(C)S,-74,,160,0.716,,,
CC1=CCC2C(C)(C)CCC[C@]2(C)[C@@]12CC[C@](C)(CC(=O)O)O2 (stereo partly specified),100,,,,,,
C=C(Br)CC1(C(C)C)C(=O)NC(=O)NC1=O,181,,,,,,
Clc1cnccn1,,,154,,,,
Cc1cc(C)c(N)cc1C,68,,234,-2.05,,,-5.61
CC[C@H]1C[N@@]2CC[C@H]1C[C@@H]2[C@@H](O)c1ccnc2ccccc12,268,,,,,,
COC(=O)c1ccccc1C(=O)O,83,,,,,,
CCCCCCC/C=C\C(=O)O,12,,,,,,
C=CC1CCC(O)C(O)C1 (stereo unspecified),,not readily biodegradable,,,,,
NS(=O)(=O)c1cc2c(cc1C(F)(F)F)NC(Cc1ccccc1)NS2(=O)=O (stereo unspecified),222,,,,,,
NC(=O)OCC(Cl)(Cl)Cl,64,,,,,,
Clc1sc(Cl)c(Cl)c1Cl,30.5,,233,,,,
Oc1ccc2ccccc2c1Br,84,,,,,,
O=[N+]([O-])c1ccc(N=Nc2ccc(N(CCO)CCO)cc2Cl)cc1,190,,,,,,
Nc1ccc(C(=O)Oc2ccccc2)c(O)c1,153,,,,,,
CCCCCCCC/C=C\CCCCCCCC(=O)OC,-19.9,readily biodegradable,,-5.2,,,
Nc1cccc2ccccc12,49.2,not readily biodegradable,301,-2.38,3.51,,-6.95
C=CCCCCCCCCC,-49.2,,193,-0.307,,,
Oc1c(F)cccc1F,39.5,,,,,,

SMILES,melting point [°C],ready biodegradability,boiling point [°C],log10 vapour pressure (mmHg),log10 Koc (L/kg),log10 Koa,log10 Henry constant (atm·m³/mol)
O=c1[nH]c2ccccc2o1,138,,335,,,,
Brc1ccc2c3c(cccc13)CC2,52,,335,,,,
Clc1ccnc2ccccc12,34.5,,262,,,,
OCC(O)CN1CCN(c2ccccc2)CC1 (stereo unspecified),105,,,,,,
CC(C)=NN=C(C)C,-12.5,,133,,,,
C1=CCCC=CCCC=CCC1,-9.25,not readily biodegradable,240,,,,
CCCC(C(C)=O)C(=O)OCC (stereo unspecified),,,224,,,,
CCCCCCCCCCCCCC(=O)Cl,-1,,,,,,
O=[N+]([O-])c1cc(Br)ccc1Br,85.5,,,,,,
FC(F)(F)C(F)(F)C(F)(F)C(F)(F)C(F)(F)C(F)(F)C(F)(F)C(F)(F)C(F)(F)Br,,,159,,,,
O=C(O)c1c[nH]c2ccccc12,206,,,,,,
CCCC(=O)C(C)CC (stereo unspecified),,,154,,,,
CCCCCCC#CC(=O)O,-8,,,,,,
CCOc1ccccc1C(=O)O,20.7,,,,,,
CCC(=O)CCl,,,138,,,,
FC(Cl)Br (stereo unspecified),-115,,36,,,,
BrC1Cc2ccccc2C1Br (stereo unspecified),32,,,,,,
C#CCC1CCCCC1,,,158,,,,
O=C=C=C=O,-107,,6.8,,,,
Cc1nccs1,,,128,,,,
O=C=Nc1cccc2c(N=C=O)cccc12,130,,330,-4.47,,,
COc1cccc([N+](=O)[O-])c1C,55,,,,,,
C1=CCNC1,,,90.5,,,,
Oc1cccc2c1CCCC2,70,,266,,,,
CN1Cc2c(ccc3c2OCO3)[C@@H]2[C@H]1c1cc3c(cc1C[C@@H]2O)OCO3,136,,,,,,

SMILES,melting point [°C],ready biodegradability,boiling point [°C],log10 vapour pressure (mmHg),log10 Koc (L/kg),log10 Koa,log10 Henry constant (atm·m³/mol)
CCOc1ccc(C#N)cc1,61.5,,258,,,,
CN1C2CCC1CC(=O)C2,43,,227,,,,
COP(=S)(OC)Oc1cc(Cl)c(Br)cc1Cl,53.5,,,-3.89,,,
Cc1cc(=O)n(-c2ccccc2)[nH]1,128,,,,,,
CCOP(=S)(OCC)Oc1ccc([N+](=O)[O-])cc1,6.1,,375,-5.18,3.2,,-6.53
CCCCCCCCCCCCN1CCCCCC1=O,-7,,,,,,
CCCCCCOc1ccccc1C(N)=O,71,,,,,,
OCc1ccccc1I,92,,,,,,
Fc1cc(F)c(F)c(F)c1,-48,,84.4,1.86,,,
CC1CCCC(C)C1C (stereo unspecified),,,142,,,,
COc1ccc(C(=O)c2ccccc2O)c(O)c1,68,,,,,,
C=C1C[C@]23C[C@@]1(O)CC[C@H]2[C@@]12C=C[C@H](O)[C@@](C)(C(=O)O1)[C@H]2[C@@H]3C(=O)O,234,,,,,,
NC(=O)CI,94.5,not readily biodegradable,,,,,
CC(=O)Nc1ccccc1C(=O)O,186,,,,,,
Nc1cccc(S(=O)(=O)O)c1,,not readily biodegradable,,,,,
Cc1ccc(C)c(Cl)c1,1.6,not readily biodegradable,187,,,,
CC1(C)CO1,,,52,,,,
O=C1C=CC(=O)N1c1ccc(Cc2ccc(N3C(=O)C=CC3=O)cc2)cc1,,not readily biodegradable,,,,,
Fc1cc(F)c(F)c(-c2c(F)c(F)cc(F)c2F)c1F,85,,,,,,
CC1(C)C2CCC1(C)C(O)C2 (stereo unspecified),,readily biodegradable,,,,,
Clc1ccc(Cl)c(-c2c(Cl)cccc2Cl)c1Cl,,,,,,8.53,
CCN(CC)C1CCCCC1,,,193,,,,
CCOc1ccc([N+](=O)[O-])cc1,60,,283,,,,
Nc1cccc(Cl)c1Cl,24,,252,,,,
CCCC[C@@H](O)CC,,,,-0.131,,,

# Same assay, conditions: fish
SMILES,log10 BCF,log10 biotransformation half-life (days)
Brc1c(Br)c(Br)c(Br)c(Br)c1Br,3,0.43
Clc1cc2c(oc3cc(Cl)c(Cl)c(Cl)c32)c(Cl)c1Cl,3.94,1
CCC(C)(NC(=O)c1cc(Cl)c(C)c(Cl)c1)C(=O)CCl (stereo unspecified),,0.16
Nc1cccc2ccccc12,1.4,-0.24
C=CCCCCCCCCC,,0.09
C1=CCCC=CCCC=CCC1,3.92,1.74
CCCCCCCCCCCCCOC(=O)CCCCC(=O)OCCCCCCCCCCCCC,,-0.43
COP(=S)(OC)Oc1cc(Cl)c(Br)cc1Cl,3.59,0.97
CCOP(=S)(OCC)Oc1ccc([N+](=O)[O-])cc1,1.99,-0.41
